Legend:
[1] = target: T1, bovine carbonic anhydrase (BCA) (Bos taurus, UniProt P00921); assay: MagLev measurement of BCA binding to ligand-functionalized PEGA beads; details: incubation with 0.33 mM BCA for 7 days; standard levitation buffer
[2] = target: T1, bovine carbonic anhydrase (BCA); details: resin-bound control ligand; cited from earlier work

T1 sequence (P00921 whole entry): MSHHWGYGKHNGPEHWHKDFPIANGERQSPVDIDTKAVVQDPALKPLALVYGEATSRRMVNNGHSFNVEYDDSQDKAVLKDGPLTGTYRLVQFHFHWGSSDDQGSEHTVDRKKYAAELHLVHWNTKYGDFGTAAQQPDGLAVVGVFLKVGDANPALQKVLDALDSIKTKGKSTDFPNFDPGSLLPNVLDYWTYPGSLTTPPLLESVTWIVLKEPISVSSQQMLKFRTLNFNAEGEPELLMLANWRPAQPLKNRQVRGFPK

decrease in the levitation height of functionalized beads [1]: < 0.1 mm
SMILES: CN(C)S(=O)(=O)c1ccc(C(=O)O)cc1 [sulfonamide 2, 4-dimethylsulfamoylbenzoic acid]
association with BCA [2]: should not associate measurably

Reference: publication PMC3319098 (Journal of the American Chemical Society, 2012)
